One assay concerns the target recombinant Plk1 (Homo sapiens, UniProt P53350). The experiment in a line: In Vitro Plk1 Enzyme Assay (SPA, GST-Cdc25C phosphorylation). The conditions noted are these: ATP 64 nM, 90 minutes, read-out: IC50 (Plk1 enzyme inhibition). Format: biochemical.
Assay [1] concerns human colon tumour cell line HT29. The assay can be described thus: Cellular Assay (phosphohistone H3 Ser10 mitotic marker, HT29). Format: cell-based. The conditions noted are these: HT-29, 24 h, HT29 cells, read-out: IC50 (cellular assay, phosphohistone H3).
Experimental: Chromosome condensation in mitosis is accompanied by phosphorylation of histone H3 on serine 10.
After 24 hours, cells were fixed in 3.7% (v/v) formaldehyde then permeabilised and blocked for 10 minutes in 100 μl 0.5% (v/v) Triton X-100, 1% (w/v) bovine serum albumin (BSA) in phosphate buffered saline (PBS). […] The raw assay data were analysed by non-linear regression analysis and used to determine an IC50 value for each compound.

The text below walks through data of US7709471B2, “Compounds” (AstraZeneca AB, priority 2006, dated 2010).

Usually IC50 stands for the concentration that inhibits the measured activity by half.

Chain of recombinant Plk1 (P53350 whole entry): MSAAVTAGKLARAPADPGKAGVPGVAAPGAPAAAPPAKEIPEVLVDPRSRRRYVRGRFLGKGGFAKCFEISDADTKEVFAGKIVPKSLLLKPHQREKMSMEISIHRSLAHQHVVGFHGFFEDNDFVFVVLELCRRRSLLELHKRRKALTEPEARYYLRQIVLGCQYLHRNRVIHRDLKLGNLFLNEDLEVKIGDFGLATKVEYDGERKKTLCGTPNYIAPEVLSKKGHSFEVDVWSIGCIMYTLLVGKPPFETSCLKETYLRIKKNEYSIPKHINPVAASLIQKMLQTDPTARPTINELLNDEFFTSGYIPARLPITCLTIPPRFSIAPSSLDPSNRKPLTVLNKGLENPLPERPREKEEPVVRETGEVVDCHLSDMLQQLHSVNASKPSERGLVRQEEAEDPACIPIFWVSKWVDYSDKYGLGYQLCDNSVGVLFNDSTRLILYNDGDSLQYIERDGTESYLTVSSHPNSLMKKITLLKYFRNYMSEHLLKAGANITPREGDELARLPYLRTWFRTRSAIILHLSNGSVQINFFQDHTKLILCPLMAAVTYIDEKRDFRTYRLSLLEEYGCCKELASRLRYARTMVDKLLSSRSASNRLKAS

Take `CN1C(=O)CCN(C2CCCC2)c2nc(Nc3ccc(C(=O)NC4CCCCC4)cc3)ncc21` [Example 89, N-cyclohexyl-4-[(6-cyclopentyl-2-methyl-3-oxo-2,6,8,10-tetrazabicyclo[5.4.0]undeca-8,10,12-trien-9-yl)amino]benzamide]: the IC50 on recombinant Plk1 is under 1000 nM; in assay [1] it was under 30000 nM.
Taken in the same sequence, the figures for `COc1cc(C(=O)NC2CCCCC2)ccc1Nc1ncc2c(n1)N(C1CCCC1)CCC(=O)N2C` [Example 90, N-cyclohexyl-4-[(6-cyclopentyl-2-methyl-3-oxo-2,6,8,10-tetrazabicyclo[5.4.0]undeca-8,10,12-trien-9-yl)amino]-3-methoxy-benzamide] were under 1000 nM and under 300 nM.
`COc1cc(C(N)=O)ccc1Nc1ncc2c(n1)N(C1CCCC1)CCC(=O)N2C` [Example 92, 4-[(6-cyclopentyl-2-methyl-3-oxo-2,6,8,10-tetrazabicyclo[5.4.0]undeca-8,10,12-trien-9-yl)amino]-3-methoxy-benzamide]: the IC50 (on recombinant Plk1; in assay [1]) was under 300 nM in each case.
With `CCCNC(=O)c1ccc(Nc2ncc3c(n2)N(C2CCCC2)CCC(=O)N3C)c(OC)c1` [Example 93, 4-[(6-cyclopentyl-2-methyl-3-oxo-2,6,8,10-tetrazabicyclo[5.4.0]undeca-8,10,12-trien-9-yl)amino]-3-methoxy-N-propyl-benzamide], the results for the IC50 (on recombinant Plk1; in assay [1]) were under 1000 nM and under 300 nM, respectively.
As to `COc1cc(C(=O)NCC2CC2)ccc1Nc1ncc2c(n1)N(C1CCCC1)CCC(=O)N2C` [Example 94, 4-[(6-cyclopentyl-2-methyl-3-oxo-2,6,8,10-tetrazabicyclo[5.4.0]undeca-8,10,12-trien-9-yl)amino]-N-(cyclopropylmethyl)-3-methoxy-benzamide], the IC50 is under 100000 nM at recombinant Plk1 and under 300 nM in assay [1].
On to `COc1cc(C(=O)NC(C)C)ccc1Nc1ncc2c(n1)N(C1CCCC1)CCC(=O)N2C` [Example 95, 4-[(6-cyclopentyl-2-methyl-3-oxo-2,6,8,10-tetrazabicyclo[5.4.0]undeca-8,10,12-trien-9-yl)amino]-3-methoxy-N-propan-2-yl-benzamide], for which the 50% inhibitory concentration (IC50) is under 1000 nM on recombinant Plk1 and under 300 nM in assay [1].
Taken in the same sequence, the figures for `COc1cc(C(=O)NCc2ccccc2)ccc1Nc1ncc2c(n1)N(C1CCCC1)CCC(=O)N2C` [Example 96, N-benzyl-4-[(6-cyclopentyl-2-methyl-3-oxo-2,6,8,10-tetrazabicyclo[5.4.0]undeca-8,10,12-trien-9-yl)amino]-3-methoxy-benzamide] were under 100000 nM and under 300 nM.
For `COc1cc(C(=O)NC2CCC2)ccc1Nc1ncc2c(n1)N(C1CCCC1)CCC(=O)N2C` [Example 98, N-cyclobutyl-4-[(6-cyclopentyl-2-methyl-3-oxo-2,6,8,10-tetrazabicyclo[5.4.0]undeca-8,10,12-trien-9-yl)amino]-3-methoxy-benzamide], the IC50 on recombinant Plk1 was under 1000 nM; in assay [1], under 300 nM.
Taken in the same sequence, the figures for `COc1cc(C(=O)Nc2ccccc2)ccc1Nc1ncc2c(n1)N(C1CCCC1)CCC(=O)N2C` [Example 99, 4-[(6-cyclopentyl-2-methyl-3-oxo-2,6,8,10-tetrazabicyclo[5.4.0]undeca-8,10,12-trien-9-yl)amino]-3-methoxy-N-phenyl-benzamide] were under 100000 nM and under 1000 nM.
For `COc1cc(N(C)C2CCN(C)CC2)ccc1Nc1ncc2c(n1)N(C1CCCC1)CCC(=O)N2C` [Example 104, 6-cyclopentyl-9-[[2-methoxy-4-[methyl-(1-methyl-4-piperidyl)amino]phenyl]amino]-2-methyl-2,6,8,10-tetrazabicyclo[5.4.0]undeca-8,10,12-trien-3-one], in that order: under 300 nM and under 1000 nM.
Taken in the same sequence, the figures for `COCCN1CCN(c2ccc(Nc3ncc4c(n3)N(C3CCCC3)CCC(=O)N4C)c(OC)c2)CC1` [Example 105, 6-cyclopentyl-9-[[2-methoxy-4-[4-(2-methoxyethyl)piperazin-1-yl]phenyl]amino]-2-methyl-2,6,8,10-tetrazabicyclo[5.4.0]undeca-8,10,12-trien-3-one] were under 1000 nM and under 30000 nM.
As for `COc1cc(NCCN(C)C)ccc1Nc1ncc2c(n1)N(C1CCCC1)CCC(=O)N2C` [Example 107, 6-cyclopentyl-9-[[4-(2-dimethylaminoethylamino)-2-methoxy-phenyl]amino]-2-methyl-2,6,8,10-tetrazabicyclo[5.4.0]undeca-8,10,12-trien-3-one], the IC50 on recombinant Plk1 is under 1000 nM; in assay [1] it was under 30000 nM.
Turning to `COc1cc(N2CCCN(C)CC2)ccc1Nc1ncc2c(n1)N(C1CCCC1)CCC(=O)N2C` [Example 109, 6-cyclopentyl-9-[[2-methoxy-4-(4-methyl-1,4-diazepan-1-yl)phenyl]amino]-2-methyl-2,6,8,10-tetrazabicyclo[5.4.0]undeca-8,10,12-trien-3-one], the IC50 is under 1000 nM at recombinant Plk1 and under 300 nM in assay [1].
For `COc1cc(OC2CCN(C)CC2)ccc1Nc1ncc2c(n1)N(C1CCCC1)CCC(=O)N2C` [Example 113, 6-cyclopentyl-9-[[2-methoxy-4-[(1-methyl-4-piperidyl)oxy]phenyl]amino]-2-methyl-2,6,8,10-tetrazabicyclo[5.4.0]undeca-8,10,12-trien-3-one], the IC50 (at recombinant Plk1; in assay [1]) was under 1000 nM each time.
On to `COc1cc(OC2CCN(C)C2)ccc1Nc1ncc2c(n1)N(C1CCCC1)CCC(=O)N2C` (centres unmarked) [Example 114, 6-cyclopentyl-9-[[2-methoxy-4-(1-methylpyrrolidin-3-yl)oxy-phenyl]amino]-2-methyl-2,6,8,10-tetrazabicyclo[5.4.0]undeca-8,10,12-trien-3-one], for which the IC50 at recombinant Plk1 was under 300 nM; in assay [1], under 1000 nM.
For `COc1cc(OCCN2CCOCC2)ccc1Nc1ncc2c(n1)N(C1CCCC1)CCC(=O)N2C` [Example 115, 6-cyclopentyl-9-[[2-methoxy-4-(2-morpholin-4-ylethoxy)phenyl]amino]-2-methyl-2,6,8,10-tetrazabicyclo[5.4.0]undeca-8,10,12-trien-3-one], in that order: under 1000 nM and under 30000 nM.
For the compound `CN(C)c1ccc(Nc2ncc3c(n2)N(C2CCCC2)CCC(=O)N3C)cc1` [Example 122, 6-cyclopentyl-9-[(4-dimethylaminophenyl)amino]-2-methyl-2,6,8,10-tetrazabicyclo[5.4.0]undeca-8,10,12-trien-3-one], the IC50 was under 100000 nM on recombinant Plk1 and under 30000 nM in assay [1].
Take `CN1C(=O)CCN(C2CCCC2)c2nc(Nc3ccc(S(N)(=O)=O)cc3)ncc21` [Example 123, 4-[(6-cyclopentyl-2-methyl-3-oxo-2,6,8,10-tetrazabicyclo[5.4.0]undeca-8,10,12-trien-9-yl)amino]benzenesulfonamide]: the values for the IC50 (at recombinant Plk1; in assay [1]) were under 100000 nM and under 30000 nM, respectively.
Taken in the same sequence, the figures for `CC(=O)N1CCc2cc(Nc3ncc4c(n3)N(C3CCCC3)CCC(=O)N4C)ccc21` [Example 124, 9-[(1-acetyl-2,3-dihydroindol-5-yl)amino]-6-cyclopentyl-2-methyl-2,6,8,10-tetrazabicyclo[5.4.0]undeca-8,10,12-trien-3-one] were under 1000 nM and under 30000 nM.
